Holding throughout (experiment): relative viability (nuclei count vs DMSO), 5 days (fraction); higher = more cells survive
Compound in assay [1]: O=C(C[C@H]1NCCC[C@@H]1O)Cn1cnc2cc(Br)c(Cl)cc2c1=O (racemic) [Halofuginone] + Nc1ncn([C@H]2C[C@H](O)[C@@H](CO)O2)c(=O)n1 [Decitabine] (partner 2 µM)
The essentials:
(§1)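 Lung cancer cell lines, seeded in 1536-well plates, were treated the following day by pin tool with a single drug or with five library-drug doses (not always all listed) in √10 steps on top of a fixed anchor-drug dose. Cells were fixed and nuclei stained in one step after 5 days, and nuclei were counted. Relative viability is the nuclei count for treated wells divided by that for vehicle wells, reported as medians of duplicate plates.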

Compound in assay [2]: O=C(C[C@H]1NCCC[C@@H]1O)Cn1cnc2cc(Br)c(Cl)cc2c1=O (racemic) [Halofuginone] + CC(C)C[C@H](NC(=O)[C@H](Cc1ccccc1)NC(=O)c1cnccn1)B(O)O [Bortezomib] (partner 0.002 µM)
The method, boiled down:
as §1

Compound in assay [3]: O=C(C[C@H]1NCCC[C@@H]1O)Cn1cnc2cc(Br)c(Cl)cc2c1=O (racemic) [Halofuginone] + CC1(C)CCC(c2ccc(Cl)cc2)=C(CN2CCN(c3ccc(C(=O)NS(=O)(=O)c4ccc(N[C@H](CCN5CCOCC5)CSc5ccccc5)c(S(=O)(=O)C(F)(F)F)c4)cc3)CC2)C1 [Navitoclax] (partner 0.5 µM)
The method, boiled down:
as §1

Compound in assay [4]: COc1cc2c(Oc3ccc4[nH]c(C)cc4c3F)ncnc2cc1OCCCN1CCCC1 [Cediranib] + C[C@@H](Oc1cc(-c2cnn(C3CCNCC3)c2)cnc1N)c1c(Cl)ccc(F)c1Cl [Crizotinib] (partner 1 µM)
The method, boiled down: as §1

Take NCI-H727: the relative viability came out at 0.85 in assay [1] (first compound 0.001 µM); 0.764 in assay [1] (first compound 0.003162 µM); 0.954 in assay [1] (first compound 0.01 µM); 0.944 in assay [1] (first compound 0.03162 µM); 0.723 in assay [1] (first compound 0.1 µM); 0.981 in assay [2] (first compound 0.001 µM). The relative viability worked out at 0.798 in assay [2] (first compound 0.003162 µM); 0.927 in assay [2] (first compound 0.01 µM); 0.856 in assay [2] (first compound 0.03162 µM); 0.468 in assay [2] (first compound 0.1 µM); 0.481 in assay [3] (first compound 0.001 µM); 0.316 in assay [3] (first compound 0.003162 µM). The relative viability in assay [3] (first compound 0.01 µM) worked out at 0.397; in assay [3] (first compound 0.03162 µM), 0.355; in assay [3] (first compound 0.1 µM) it was 0.22; in assay [4] (first compound 0.04 µM) it was 0.927; in assay [4] (first compound 0.1265 µM), 0.758; in assay [4] (first compound 0.4 µM), 0.876. Besides, the relative viability in assay [4] (first compound 1.265 µM) was determined as 0.671; in assay [4] (first compound 4 µM) it was 0.736.
Consider NCI-H358, for which the relative viability in assay [1] (first compound 0.001 µM) was 0.227; in assay [1] (first compound 0.003162 µM) it was 0.239; in assay [1] (first compound 0.01 µM), 0.2; in assay [1] (first compound 0.03162 µM), 0.135; in assay [1] (first compound 0.1 µM), 0.119; in assay [4] (first compound 0.04 µM) it was 0.546. Also, the relative viability is 0.641 in assay [4] (first compound 0.1265 µM), 0.637 in assay [4] (first compound 0.4 µM), 0.567 in assay [4] (first compound 1.265 µM) and 0.428 in assay [4] (first compound 4 µM).
Regarding NCI-H1437, the relative viability in assay [1] (first compound 0.001 µM) worked out at 0.621; in assay [1] (first compound 0.003162 µM) it was 0.555; in assay [1] (first compound 0.01 µM) it was 0.513; in assay [1] (first compound 0.03162 µM), 0.522; in assay [1] (first compound 0.1 µM), 0.522; in assay [2] (first compound 0.001 µM), 0.548. Besides, the relative viability in assay [2] (first compound 0.003162 µM) came to 0.604; in assay [2] (first compound 0.01 µM), 0.504; in assay [2] (first compound 0.03162 µM) it was 0.483; in assay [2] (first compound 0.1 µM) it was 0.253; in assay [3] (first compound 0.001 µM), 1.09; in assay [3] (first compound 0.003162 µM) it was 1.13. For the same cell line, the relative viability came to 1.06 in assay [3] (first compound 0.01 µM); 0.976 in assay [3] (first compound 0.03162 µM); 0.436 in assay [3] (first compound 0.1 µM); 0.966 in assay [4] (first compound 0.04 µM); 0.87 in assay [4] (first compound 0.1265 µM); 0.823 in assay [4] (first compound 0.4 µM). The relative viability turned out to be 0.892 in assay [4] (first compound 1.265 µM) and 0.879 in assay [4] (first compound 4 µM).
As for NCI-H441, the relative viability is 0.29 in assay [1] (first compound 0.001 µM); 0.262 in assay [1] (first compound 0.003162 µM); 0.262 in assay [1] (first compound 0.01 µM); 0.275 in assay [1] (first compound 0.03162 µM); 0.234 in assay [1] (first compound 0.1 µM); 0.456 in assay [2] (first compound 0.001 µM). For the same cell line, the relative viability is 0.457 in assay [2] (first compound 0.003162 µM); 0.6 in assay [2] (first compound 0.01 µM); 0.491 in assay [2] (first compound 0.03162 µM); 0.433 in assay [2] (first compound 0.1 µM); 0.607 in assay [3] (first compound 0.001 µM); 0.674 in assay [3] (first compound 0.003162 µM). Further, the relative viability came out at 0.562 in assay [3] (first compound 0.01 µM); 0.586 in assay [3] (first compound 0.03162 µM); 0.34 in assay [3] (first compound 0.1 µM); 0.78 in assay [4] (first compound 0.04 µM); 0.76 in assay [4] (first compound 0.1265 µM); 1.02 in assay [4] (first compound 0.4 µM). Also, the relative viability in assay [4] (first compound 1.265 µM) is 0.504; in assay [4] (first compound 4 µM) it was 0.735.
As for EMC-BAC-2, the relative viability in assay [1] (first compound 0.001 µM) is 0.989; in assay [1] (first compound 0.003162 µM), 1; in assay [1] (first compound 0.01 µM) it was 0.917; in assay [1] (first compound 0.03162 µM) it was 0.874; in assay [1] (first compound 0.1 µM), 0.409; in assay [2] (first compound 0.001 µM) it was 1.1. Further, the relative viability in assay [2] (first compound 0.003162 µM) came to 1.09; in assay [2] (first compound 0.01 µM), 1.08; in assay [2] (first compound 0.03162 µM), 1.02; in assay [2] (first compound 0.1 µM), 0.986; in assay [3] (first compound 0.001 µM), 1.14; in assay [3] (first compound 0.003162 µM), 1.29. Besides, the relative viability in assay [3] (first compound 0.01 µM) was found to be 1.14; in assay [3] (first compound 0.03162 µM), 1.13; in assay [3] (first compound 0.1 µM) it was 0.87; in assay [4] (first compound 0.04 µM) it was 0.782; in assay [4] (first compound 0.1265 µM), 0.703; in assay [4] (first compound 0.4 µM) it was 0.754. The relative viability in assay [4] (first compound 1.265 µM) was 0.785; in assay [4] (first compound 4 µM), 0.853.
For the cell line NCI-H647, the relative viability turned out to be 0.408 in assay [1] (first compound 0.001 µM); 0.452 in assay [1] (first compound 0.003162 µM); 0.432 in assay [1] (first compound 0.01 µM); 0.334 in assay [1] (first compound 0.03162 µM); 0.215 in assay [1] (first compound 0.1 µM); 1.2 in assay [2] (first compound 0.001 µM). Besides, the relative viability was 1.1 in assay [2] (first compound 0.003162 µM); 0.833 in assay [2] (first compound 0.01 µM); 0.912 in assay [2] (first compound 0.03162 µM); 0.367 in assay [2] (first compound 0.1 µM); 1.15 in assay [3] (first compound 0.001 µM); 1.09 in assay [3] (first compound 0.003162 µM). Also, the relative viability in assay [3] (first compound 0.01 µM) was determined as 1.13; in assay [3] (first compound 0.03162 µM), 0.829; in assay [3] (first compound 0.1 µM), 0.415; in assay [4] (first compound 0.04 µM), 1.24; in assay [4] (first compound 0.1265 µM), 1.03; in assay [4] (first compound 0.4 µM) it was 0.86. Besides, the relative viability in assay [4] (first compound 1.265 µM) was determined as 1.1; in assay [4] (first compound 4 µM), 1.18.
For CAL-12T, the relative viability in assay [2] (first compound 0.001 µM) was 1.13; in assay [2] (first compound 0.003162 µM), 1.04; in assay [2] (first compound 0.03162 µM), 1.37; in assay [2] (first compound 0.1 µM), 0.894; in assay [3] (first compound 0.001 µM) it was 1.54; in assay [3] (first compound 0.003162 µM), 1.37. Further, the relative viability amounted to 1.24 in assay [3] (first compound 0.01 µM); 0.974 in assay [3] (first compound 0.03162 µM); 0.565 in assay [3] (first compound 0.1 µM); 0.855 in assay [4] (first compound 0.04 µM); 0.639 in assay [4] (first compound 0.1265 µM); 0.661 in assay [4] (first compound 0.4 µM). Further, the results for the relative viability in assay [4] (first compound 1.265 µM) and in assay [4] (first compound 4 µM) were 0.638 and 0.62, respectively.
On to NCI-H1792, for which the relative viability is 0.652 in assay [1] (first compound 0.001 µM); 0.609 in assay [1] (first compound 0.003162 µM); 0.529 in assay [1] (first compound 0.01 µM); 0.541 in assay [1] (first compound 0.03162 µM); 0.186 in assay [1] (first compound 0.1 µM); 0.965 in assay [2] (first compound 0.001 µM). Besides, the relative viability in assay [2] (first compound 0.003162 µM) worked out at 1.01; in assay [2] (first compound 0.01 µM), 1.01; in assay [2] (first compound 0.03162 µM), 0.942; in assay [2] (first compound 0.1 µM), 0.866; in assay [3] (first compound 0.001 µM), 0.557; in assay [3] (first compound 0.003162 µM), 0.671. The relative viability in assay [3] (first compound 0.01 µM) was found to be 0.783; in assay [3] (first compound 0.03162 µM), 0.664; in assay [3] (first compound 0.1 µM) it was 0.654; in assay [4] (first compound 0.04 µM), 1.03; in assay [4] (first compound 0.1265 µM), 1.03; in assay [4] (first compound 0.4 µM) it was 0.915. The relative viability in assay [4] (first compound 1.265 µM) was 0.979; in assay [4] (first compound 4 µM), 0.882.

Values taken from the supplement of paper PMC10307832.
